Test results from patent EP2140864A2 (H. Lundbeck A/S, priority 2001, dated 2002).

Target: T1, human histamine H1 receptor (Homo sapiens, UniProt P35367)
T1 construct: expressed in transfected cells
Assay: Radioligand binding, histamine H1 receptor
Settings: for selectivity ratio hH1: Table 10, Ki hH1 divided by Ki hGAL3
Text: Other receptors: Cell membranes expressing human dopamine D1, D2, D4 and rat D3 receptors were purchased through BioSignal, Inc. (Montreal, Canada). Binding assays using the histamine H1 receptor; dopamine receptors; and α1A, α1E, and α2 adrenergic receptors may be carried out according to the procedures described in U.S. Patent No. 5,780,485, the disclosure of which is hereby incorporated by reference in its entirety into this application. Binding assays using the dopamine D5 receptor may be carried out according to the procedures described in U.S. Patent No. 5,882,855, the disclosure of which is hereby incorporated by reference in its entirety into this application. Binding assays for the human α1D adrenergic receptor may be carried out according to the procedures described in U.S. Patent No. 6,156,518, the disclosure of which is hereby incorporated by reference in its entirety into this application.
Binding data were analyzed using nonlinear regression and statistical techniques available in the GraphPAD Prism package (San Diego, CA). Enzymatic assay data were derived from a standard curve of reference compound data.

T1 sequence (P35367 whole entry): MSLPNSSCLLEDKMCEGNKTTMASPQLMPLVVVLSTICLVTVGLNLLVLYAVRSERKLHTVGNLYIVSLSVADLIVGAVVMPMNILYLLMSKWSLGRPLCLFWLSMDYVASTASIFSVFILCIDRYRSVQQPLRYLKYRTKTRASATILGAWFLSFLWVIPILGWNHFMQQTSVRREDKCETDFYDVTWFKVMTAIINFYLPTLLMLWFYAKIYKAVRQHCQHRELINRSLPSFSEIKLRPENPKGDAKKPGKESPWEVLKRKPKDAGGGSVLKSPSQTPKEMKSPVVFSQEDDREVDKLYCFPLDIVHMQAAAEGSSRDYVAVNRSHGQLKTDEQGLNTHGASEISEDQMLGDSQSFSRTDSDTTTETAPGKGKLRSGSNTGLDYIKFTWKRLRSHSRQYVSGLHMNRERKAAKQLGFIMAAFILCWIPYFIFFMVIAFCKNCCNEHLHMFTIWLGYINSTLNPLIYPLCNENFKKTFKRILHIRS

| Structure (SMILES) | Ki (Table 9, read-out: hH1 Ki) [µM] | selectivity ratio hH1 |
| --- | --- | --- |
| CN(C)c1cc(Nc2ccc(Cl)c(Cl)c2)nc(Nc2ccccc2)n1 [Example 60] | 39.9 | >100 |
| O=C1C(=Nc2cccc(C(F)(F)F)c2)c2ccccc2N1c1ccccc1 [Example 92, 1-PHENYL-3- [[3-(TRIFLUOROMETHYL)PHENYL]IMINO]-1,3-DIHYDRO-2H-INDOL-2-ONE] | – | >100 |
